One test has as its target T1, CDK2/CyclinA (Homo sapiens, UniProt P24941).
T1 construct: purchased Invitrogen PV3267
Briefly: In vitro kinase activity assay (PKLight), CDK2/Cyclin A. The class given is biochemical. Conditions: 0.5 μM ATP. How it is done:
(§1) The recombinant enzymes (CDK2/CyclinA, FLT3, JAK2 and JAK2 V617F) were purchased from Invitrogen (Cat #PV3267, 3182, 4210 and 4347 respectively). All assays were carried out in 384-well white microtiter plates using the PKLight assay system from Cambrex (East Rutherford, N.J.). This assay platform is essentially a luminometric assay for the detection of ATP in the reaction using a luciferase-coupled reaction. For CDK2/Cyclin A assay, the reaction mixture consisted of the following components in 25 μL assay buffer (50 mM Hepes pH 7.5, 10 mM MgCl2, 5 mM MnCl2, 5 mM BGP, 1 mM DTT, 0.1 mM sodium orthovanadate), 1.4 μg/mL of CDK2/Cyclin A complex, 0.5 μM of RbING substrate (Invitrogen, Cat #PV2939) and 0.5 μM of ATP. The compounds were tested at 8 concentrations prepared from 4-fold serial dilution starting at 10 μM. The reaction was incubated at room temperature for 2 hr. 13 μL of PKLight ATP detection reagent was added and the reaction was incubated for 10 min. Luminescence signals were detected on a multi-label plate reader (Victor^2 V 1420, Perkin-Elmer). The other kinase assays were identical except for the following differences in reagents. For FLT3 assays, the reaction contained 2.0 μg/mL FLT3 enzyme, 5 μM of poly(Glu,Tyr) substrate (Sigma, Cat #P0275) and 4 μM of ATP. For JAK2 assays, the reaction contained 0.6 μg/mL of JAK2 enzyme, 2 μM of poly(Glu,Ala,Tyr) substrate (Sigma, Cat #P3899) and 0.2 μM of ATP. For JAK2 V617F mutant assays, the reaction contained 8.0 μg/mL of JAK2 mutant enzyme, 2 μM of poly(Glu,Ala,Tyr) substrate (Sigma, Cat #P3899) and 0.2 μM of ATP. The analytical software, Prism 4.0 (GraphPad Software Pte Ltd) was used to generate IC50 values from the data.

Another test concerns the target T2, FLT3 (Homo sapiens, UniProt P36888).
T2 construct: purchased Invitrogen PV3182
T2 sequence (P36888 27-993): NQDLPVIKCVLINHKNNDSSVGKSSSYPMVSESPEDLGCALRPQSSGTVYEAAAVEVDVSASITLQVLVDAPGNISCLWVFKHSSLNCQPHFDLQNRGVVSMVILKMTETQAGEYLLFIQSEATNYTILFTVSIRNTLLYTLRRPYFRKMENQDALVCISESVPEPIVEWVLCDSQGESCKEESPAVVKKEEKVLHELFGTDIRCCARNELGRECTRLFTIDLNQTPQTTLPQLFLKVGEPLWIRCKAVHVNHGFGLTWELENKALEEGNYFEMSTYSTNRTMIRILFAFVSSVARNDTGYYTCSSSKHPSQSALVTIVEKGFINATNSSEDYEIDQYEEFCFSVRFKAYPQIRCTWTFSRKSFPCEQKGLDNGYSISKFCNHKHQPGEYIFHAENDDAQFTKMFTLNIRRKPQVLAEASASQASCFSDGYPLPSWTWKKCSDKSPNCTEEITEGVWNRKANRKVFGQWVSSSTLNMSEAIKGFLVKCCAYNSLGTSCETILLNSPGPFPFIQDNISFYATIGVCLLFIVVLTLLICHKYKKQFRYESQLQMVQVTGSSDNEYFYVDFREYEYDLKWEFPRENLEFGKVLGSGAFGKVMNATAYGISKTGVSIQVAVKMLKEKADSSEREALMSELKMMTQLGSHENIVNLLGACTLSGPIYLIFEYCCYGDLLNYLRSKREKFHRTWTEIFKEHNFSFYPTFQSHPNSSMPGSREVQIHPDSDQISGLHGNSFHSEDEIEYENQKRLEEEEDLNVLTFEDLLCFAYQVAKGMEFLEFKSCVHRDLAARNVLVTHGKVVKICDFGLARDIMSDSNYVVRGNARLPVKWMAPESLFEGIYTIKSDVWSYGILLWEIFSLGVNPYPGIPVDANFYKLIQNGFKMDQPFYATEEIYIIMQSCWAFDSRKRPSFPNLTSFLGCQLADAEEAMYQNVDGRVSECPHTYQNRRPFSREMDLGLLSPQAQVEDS
Briefly: In vitro kinase activity assay (PKLight), FLT3. The class given is biochemical. The protocol:
as §1, with “All” for “The recombinant enzymes (CDK2/CyclinA, FLT3, JAK2 and JAK2 V617F) were purchased from Invitrogen (Cat #PV3267, 3182, 4210 and 4347 respectively). All”, “For JAK2 V617F mutant assays, the reaction contained 8.0 μg/mL of JAK2 mutant enzyme, 2 μM of poly(Glu,Ala,Tyr) substrate (Sigma, Cat #P3899) and 0.2 μM of ATP.” left out

The next test deals with T3, JAK2 (Homo sapiens, UniProt O60674).
T3 construct: purchased Invitrogen PV4210
T3 sequence (O60674 whole entry): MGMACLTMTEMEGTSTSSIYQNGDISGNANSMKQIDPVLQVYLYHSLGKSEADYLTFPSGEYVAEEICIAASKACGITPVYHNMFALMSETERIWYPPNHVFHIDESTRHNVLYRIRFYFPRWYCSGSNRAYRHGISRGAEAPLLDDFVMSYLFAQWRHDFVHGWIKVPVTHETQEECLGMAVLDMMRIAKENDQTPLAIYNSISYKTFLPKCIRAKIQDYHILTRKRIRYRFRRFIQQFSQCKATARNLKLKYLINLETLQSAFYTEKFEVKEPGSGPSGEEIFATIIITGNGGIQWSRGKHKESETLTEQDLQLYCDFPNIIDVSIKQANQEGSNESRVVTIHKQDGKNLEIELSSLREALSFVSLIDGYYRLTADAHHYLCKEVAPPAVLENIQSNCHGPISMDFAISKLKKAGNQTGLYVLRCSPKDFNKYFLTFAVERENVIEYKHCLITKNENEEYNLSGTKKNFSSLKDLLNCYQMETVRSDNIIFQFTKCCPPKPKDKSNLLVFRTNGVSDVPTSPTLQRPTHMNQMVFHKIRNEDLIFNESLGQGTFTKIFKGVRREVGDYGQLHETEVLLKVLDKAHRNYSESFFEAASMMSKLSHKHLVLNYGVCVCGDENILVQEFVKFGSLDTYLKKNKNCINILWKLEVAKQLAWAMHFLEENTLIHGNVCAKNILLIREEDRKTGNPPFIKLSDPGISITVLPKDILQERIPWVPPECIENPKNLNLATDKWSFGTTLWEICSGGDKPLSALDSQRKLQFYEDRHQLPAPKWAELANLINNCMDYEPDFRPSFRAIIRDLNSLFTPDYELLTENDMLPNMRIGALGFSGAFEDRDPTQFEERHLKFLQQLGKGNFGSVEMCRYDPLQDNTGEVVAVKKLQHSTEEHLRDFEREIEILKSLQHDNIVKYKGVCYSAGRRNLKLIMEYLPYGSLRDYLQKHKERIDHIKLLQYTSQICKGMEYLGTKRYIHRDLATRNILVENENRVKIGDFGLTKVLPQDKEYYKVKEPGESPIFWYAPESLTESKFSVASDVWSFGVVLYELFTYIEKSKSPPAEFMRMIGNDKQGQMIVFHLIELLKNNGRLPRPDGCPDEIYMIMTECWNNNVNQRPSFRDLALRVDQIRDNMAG
Briefly: In vitro kinase activity assay (PKLight), JAK2. Format: biochemical. How it is done:
as §1, with “All” for “The recombinant enzymes (CDK2/CyclinA, FLT3, JAK2 and JAK2 V617F) were purchased from Invitrogen (Cat #PV3267, 3182, 4210 and 4347 respectively). All”, “For JAK2 V617F mutant assays, the reaction contained 8.0 μg/mL of JAK2 mutant enzyme, 2 μM of poly(Glu,Ala,Tyr) substrate (Sigma, Cat #P3899) and 0.2 μM of ATP.” left out

The subject of test [1] is HL60 (acute myeloid leukemia cell line). Briefly: Cell-based proliferation assay for GI50, HL60. Conditions: Homo sapiens, HL-60; HL60 cells, 96 h treatment. How it is done: (§2) Human cancer cell lines HL60 (acute myeloid leukemia cell line), Colo205 (colon adenocarcinoma cell line), HEL92.1.7 (erythroleukemia cell line) and MV4-11 (acute myeloid leukemia cell line) were obtained from ATCC. They were cultivated in the media according to the ATCC work instructions. Colo205 cells were seeded in 96-wells plate at 5000 cells per well. HEL92.1.7 and MV4-11 cells were seeded at 6000 cells per well while HL60 cells were seeded at 8000 cells per well in 96 well plate. The plates were incubated at 37° C., 5% CO2, for 24 h. Cells were treated with compounds at various concentrations for 96 h. Cell growth was then monitored using Celltiter96 Aqueous One Solution Cell Proliferation Assay from Promega (Madison Wis.). Dose response curves were plotted to determine GI50 values for the compounds using XL-fit (ID Business Solution, Emeryville, Calif.).

The test system of test [2] is Colo205 (colon adenocarcinoma cell line). Briefly: Cell-based proliferation assay for GI50, Colo205. The conditions noted are these: Homo sapiens, COLO 205; Colo205 cells, 96 h treatment. The protocol: as §2
Test [3] has as its system HEL92.1.7 (erythroleukemia cell line). Briefly: Cell-based proliferation assay for GI50, HEL92.1.7. Conditions: Homo sapiens, HEL 92.1.7; HEL92.1.7 cells, 96 h treatment. The protocol: as §2
For test [4], the system named is MV4-11 (acute myeloid leukemia cell line). Briefly: Cell-based proliferation assay for GI50, MV4-11. The conditions noted are these: Homo sapiens; MV4-11 cells, 96 h treatment. The protocol:
as §2

The structures appear in SMILES notation. pIC50: −log10 of the molar value.

As usually defined, the pIC50 is the IC50 on a negative log10 scale, so that one unit is a factor of ten. Read a high pIC50 as a small IC50. Usually GI50 stands for the concentration that inhibits growth by half.

As for `COc1ccc2cc1COC/C=C/COc1cccc(c1)-c1ccnc(n1)N2` [Compound 6], the pIC50 against CDK2/CyclinA, on FLT3 and against JAK2 was not below 6.00 each time. The concentration for 50% growth inhibition (GI50) in test [1] and in test [2] was 1 to 5 µM each time.
`COc1ccc2cc1COC/C=C\COc1cccc(c1)-c1ccnc(n1)N2` [Compound 7]: the pIC50 is less than 5.30 against CDK2/CyclinA, not below 6.00 on FLT3 and less than 5.30 on JAK2. In addition, the GI50 in test [1] is not above 1 µM; in test [2], more than 5 µM; in test [3] it was more than 5 µM; in test [4], more than 5 µM.
`C1=C/COCc2cc(ccc2OCCN2CCCC2)Nc2nccc(n2)-c2cccc(c2)COC/1` [Compound 13] showed a pIC50 on CDK2/CyclinA of 5.30 to 6.00. In addition, the GI50 in test [1] was not above 1 µM; in test [2] it was 1 to 5 µM; in test [3] it was 1 to 5 µM; in test [4], not above 1 µM.
On to `COc1cc2cc(c1OCCN1CCCC1)COC/C=C/COCc1cccc(c1)-c1ccnc(n1)N2` [Compound 32], for which the pIC50 on CDK2/CyclinA was 5.30 to 6.00; against FLT3 it was not below 6.00; against JAK2 it was not below 6.00. Moreover, the GI50 is not above 1 µM in test [1], 1 to 5 µM in test [3] and not above 1 µM in test [4].
Turning to `C1=C/COCc2cc(ccc2N2CCOCC2)Nc2nccc(n2)-c2cccc(c2)COC/1` [Compound 33], the pIC50 is less than 5.30 on CDK2/CyclinA, not below 6.00 against FLT3 and not below 6.00 on JAK2. The figures for the GI50 in test [1], in test [3] and in test [4] were 1 to 5 µM, 1 to 5 µM and not above 1 µM, respectively.
In the case of `Fc1cc2cc(c1)-c1ccnc(n1)Nc1ccc(OCCN3CCCC3)c(c1)COC/C=C/CCO2` [Compound 36], the pIC50 is 5.30 to 6.00 on CDK2/CyclinA, not below 6.00 against FLT3 and not below 6.00 on JAK2. The figures for the GI50 in test [1], in test [3] and in test [4] were not above 1 µM, 1 to 5 µM and not above 1 µM, respectively.
`C1=C2COC/C=C/COCc3cc(ccc3OCCN3CCCC3)Nc3nccc(n3)C(=C1)O2` [Compound 38]: the pIC50 was less than 5.30 on CDK2/CyclinA, not below 6.00 against FLT3 and not below 6.00 against JAK2. Besides, the GI50 was not above 1 µM in test [1], 1 to 5 µM in test [3] and not above 1 µM in test [4].
For `CN1CCN(c2ccc3cc2COC/C=C/COCc2cccc(c2)-c2ccnc(n2)N3)CC1` [Compound 40], the pIC50 against CDK2/CyclinA was less than 5.30; against FLT3, not below 6.00; against JAK2, not below 6.00. For the same molecule, the concentration for 50% growth inhibition (GI50) in test [1], in test [3] and in test [4] was not above 1 µM throughout.
For `Fc1ccc2cc1COC/C=C/COCc1cc(ccc1OCCN1CCCC1)Nc1nccc-2n1` [Compound 46], the pIC50 is 5.30 to 6.00 against CDK2/CyclinA, not below 6.00 on FLT3 and not below 6.00 at JAK2. The GI50 was not above 1 µM in test [1], 1 to 5 µM in test [3] and not above 1 µM in test [4].
With `C1=C2COC/C=C/COCc3cc(ccc3OCCN3CCCC3)Nc3nccc(n3)C(=C1)S2` [Compound 48], the pIC50 on CDK2/CyclinA was less than 5.30; at FLT3 it was not below 6.00; against JAK2, not below 6.00. Also, the GI50 in test [1], in test [2], in test [3] and in test [4] was not above 1 µM throughout.
With `C1=C/COCc2cc(ccc2OCCN2CCCC2)Nc2nccc(n2)-c2coc(c2)COC/1` [Compound 50], the pIC50 on CDK2/CyclinA is less than 5.30; against FLT3, not below 6.00; on JAK2, not below 6.00. Besides, the GI50 in test [1] was not above 1 µM; in test [3], 1 to 5 µM; in test [4], not above 1 µM.
For `C1=C/COCc2cc(ccc2OCCN2CCCC2)Nc2nccc(n2)-c2csc(c2)COC/1` [Compound 52], the pIC50 is less than 5.30 against CDK2/CyclinA, not below 6.00 on FLT3 and not below 6.00 on JAK2. For the same molecule, the GI50 in test [1], in test [3] and in test [4] was not above 1 µM each time.
With `c1cc2cc(c1)-c1ccnc(n1)Nc1ccc(OCCN3CCCC3)c(c1)COCC1CC1COC2` (stereo not drawn) [Compound 53], the pIC50 is 5.30 to 6.00 against CDK2/CyclinA, not below 6.00 on FLT3 and not below 6.00 on JAK2. For the same molecule, the GI50 in test [1] is not above 1 µM; in test [3] it was 1 to 5 µM; in test [4], not above 1 µM.
Turning to `C1=C/COCc2cc(ccc2OCCN2CCCC2)Nc2nccc(n2)-c2cc(co2)COC/1` [Compound 55], the pIC50 on CDK2/CyclinA was less than 5.30; against FLT3 it was not below 6.00; against JAK2 it was not below 6.00. The GI50 was 1 to 5 µM in test [1], 1 to 5 µM in test [3] and not above 1 µM in test [4].
Regarding `C1=C/COCc2cc(ccc2OCCN2CCCC2)Nc2nccc(n2)-c2cncc(c2)COC/1` [Compound 56], the values for the pIC50 against CDK2/CyclinA, against FLT3 and against JAK2 were 5.30 to 6.00, not below 6.00 and not below 6.00, respectively. Besides, the GI50 in test [1] is not above 1 µM; in test [3] it was 1 to 5 µM; in test [4], not above 1 µM.

The values are drawn from US9573964B2, “Oxygen linked pyrimidine derivatives” (CTI BIOPHARMA CORP., priority 2005, dated 2017).
